From US20090029958A1, “PHENETHANOLAMINE DERIVATIVES AS BETA2 ADRENORECEPTOR AGONISTS” (priority 2006, published 2009)
Where a name gives a salt, the structure may show the parent alone.

Experiments:
Adrenergic β2 [1] = target: T1, Adrenergic β2 (Homo sapiens, UniProt P07550); assay: Alternative Adrenergic β2 Mediated cAMP Production in H292 cells (60 minutes incubation with test compound); assay type: cell-based; details: for EC50: rolipram 300 μM, test compounds incubated 60 minutes at room temperature; for Intrinsic Activity: fraction relative to the maximum activity determined for formoterol, 60 minutes incubation
T1 construct: endogenous in cells; host or cells: H292 cells
T1 sequence (P07550 whole entry): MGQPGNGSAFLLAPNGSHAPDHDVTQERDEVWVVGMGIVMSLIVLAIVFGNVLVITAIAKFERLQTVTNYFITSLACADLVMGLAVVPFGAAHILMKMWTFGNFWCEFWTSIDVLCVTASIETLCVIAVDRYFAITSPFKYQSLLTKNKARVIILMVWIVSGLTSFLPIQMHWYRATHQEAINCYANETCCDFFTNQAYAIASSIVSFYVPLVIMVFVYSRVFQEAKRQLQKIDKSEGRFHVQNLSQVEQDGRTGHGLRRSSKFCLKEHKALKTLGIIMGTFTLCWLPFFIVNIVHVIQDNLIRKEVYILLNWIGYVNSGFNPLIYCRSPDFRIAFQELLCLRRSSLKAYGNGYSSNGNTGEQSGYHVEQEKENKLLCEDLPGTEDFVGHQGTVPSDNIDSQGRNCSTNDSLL
Experimental: H292 cells were grown in 225 cm2 flasks incubator at 37° C., 5% CO2 in RPMI medium containing, 10% (v/v) FBS (foetal bovine serum) and 2 mM L-glutamine.
Adherent H292 cells were removed from tissue culture flasks by treatment with Accutase™ cell detachment solution for 15 minutes. Flasks were incubated for 15 minutes in a humidified incubator at 37° C., 5% CO2. Detached cells were re-suspended in RPMI media (containing 10% (v/v) FBS and 2 mM L-glutamine) at 0.05×10^6 cells per mL. 5000 cells in 100 μL were added to each well of a tissue-culture-treated 96-well plate and the cells incubated overnight in a humidified incubator at 37° C., 5% CO2. The culture media was removed and cells were washed twice with 100 μL assay buffer and replaced with 50 μL assay buffer (HBSS solution containing 10 mM HEPES pH7.4 and 5 mM glucose). Cells were rested at room temperature for 20 minutes after which time 25 μL of rolipram (1.2 mM made up in assay buffer containing 2.4% (v/v) dimethylsulphoxide) was added. Cells were incubated with rolipram for 10 minutes after which time test compounds were added and the cells were incubated for 60 minutes at room temperature. The final rolipram concentration in the assay was 300 μM and final vehicle concentration was 1.6% (v/v) dimethylsulphoxide. The reaction was stopped by removing supernatants, washing once with 100 μL assay buffer and replacing with 50 μL lysis buffer. The cell monolayer was frozen at −80° C. for 30 minutes (or overnight).
The concentration of cAMP (cyclic adenosine monophosphate) in the cell lysate was determined using AlphaScreen™ methodology. The frozen cell plate was thawed for 20 minutes on a plate shaker then 10 μL of the cell lysate was transferred to a 96-well white plate. 40 μL of mixed AlphaScreen™ detection beads pre-incubated with biotinylated cAMP, was added to each well and the plate incubated at room temperature for 10 hours in the dark. The AlphaScreen™ signal was measured using an EnVision spectrophotometer (Perkin-Elmer Inc.) with the recommended manufacturer's settings. cAMP concentrations were determined by reference to a calibration curve determined in the same experiment using standard cAMP concentrations. Concentration response curves for agonists were constructed and data was fitted to a four parameter logistic equation to determine both the pEC50 and Intrinsic Activity. Intrinsic Activity was expressed as a fraction relative to the maximum activity determined for formoterol in each experiment.

Adrenergic β2 [2] = target: T1, Adrenergic β2; assay: cAMP production in H292 cells, AlphaScreen cAMP detection (10 minutes incubation with test compound); assay type: cell-based; details: for Intrinsic Activity: fraction relative to the maximum activity determined for formoterol, 10 minutes incubation; for EC50: rolipram 300 μM, test compounds incubated 10 minutes at room temperature
Experimental: H292 cells were grown in RPMI (Roswell Park Memorial Institute) medium containing, 10% (v/v) FBS (foetal bovine serum) and 2 mM L-glutamine. Cells were grown in 225 cm2 flasks containing 25 mL media in a humidified incubator at 37° C., 5% CO2. Cells were harvested from the flask and passaged at a 1 in 10 dilution once per week.
The media from flasks containing H292 cells was removed, rinsed with 10 mL PBS (phosphate buffered saline) and replaced with 10 mL Accutase™ cell detachment solution. Flasks were incubated for 15 minutes in a humidified incubator at 37° C., 5% CO2. The cell suspension was counted and the cells re-suspended in RPMI media (containing 10% (v/v) FBS and 2 mM L-glutamine) at 0.05×10^6 cells per mL. 5000 cells in 100 μL were added to each well of a tissue-culture-treated 96-well plate and the cells incubated overnight in a humidified incubator at 37° C., 5% CO2. The culture media was removed, washed twice with 100 μL assay buffer and replaced with 50 μL assay buffer. Cells were rested at room temperature for 20 minutes after which time 25 μL of rolipram (1.2 mM made up in assay buffer containing 2.4% (v/v) dimethylsulphoxide) was added. Cells were incubated with rolipram for 10 minutes after which time test compounds (made up as ×4 concentrated stocks in assay buffer containing 4% (v/v) dimethylsulphoxide) were added and the cells were incubated for 10 minutes at room temperature. Final rolipram concentration in the assay was 300 μM and final vehicle concentration was 1.6% (v/v) dimethylsulphoxide. The reaction was stopped by removing supernatants, washing once with 100 μL assay buffer and replacing with 50 μL lysis buffer. The cell monolayer was frozen at −80° C. for 30 minutes (or overnight).
The concentration of cAMP (cyclic adenosine monophosphate) in the cell lysate was determined using the AlphaScreen™ methodology. The frozen cell plate was thawed for 20 minutes on a plate shaker then 10 μL of the cell lysate was transferred to a 96-well white plate. 40 μL of mixed AlphaScreen™ detection beads (containing equal volumes of donor beads (pre-incubated with biotinylated cAMP in the dark for 30 minutes) and acceptor beads), was added to each well and the plate incubated at room temperature for 10 hours in the dark. The AlphaScreen™ signal was measured using an EnVision spectrophotometer (Perkin-Elmer Inc.) with the recommended manufacturer's settings. cAMP concentrations were determined by reference to a calibration curve determined in the same experiment using standard cAMP concentrations (made up in lysis buffer in a 96-well tissue-culture-treated plate and frozen/thawed alongside the test samples) and detected using the same protocol. Concentration response curves for agonists were constructed to determine both the pEC50 and Intrinsic Activity. Intrinsic Activity was expressed as a fraction relative to the maximum activity determined for formoterol in each experiment.

Structure (SMILES)	EC50 (Adrenergic β2 [1]) [nM]	Intrinsic Activity (Adrenergic β2 [2])	EC50 (Adrenergic β2 [2]) [nM]	Intrinsic Activity (Adrenergic β2 [1])
O=C(CCN1CCC(NC[C@H](O)c2ccc(O)c3[nH]c(=O)ccc23)CC1)NCc1cccc(Cl)c1Cl [Example 36, N-(2,3-Dichlorobenzyl)-3-(4-{[(2R)-2-hydroxy-2-(8-hydroxy-2-oxo-1,2-dihydroquinolin-5-yl)ethyl]amino}piperidin-1-yl)propanamide]	3.16	–	–	–
O=c1ccc2c([C@@H](O)CNCC3(O)CCN(CCOCCc4ccccc4)CC3)ccc(O)c2[nH]1 [Example 5, 8-Hydroxy-5-{(1R)-1-hydroxy-2-[({4-hydroxy-1-[2-(2-phenylethoxy)ethyl]piperidin-4-yl}methyl)amino]ethyl}quinolin-2(1H)-one]	–	0.8	2.51	–
O=C(CCN1CCC(NC[C@H](O)c2ccc(O)c3[nH]c(=O)ccc23)CC1)NC12CC3CC(CC(C3)C1)C2 [Example 41, N-1-Adamantyl-3-(4-{[(2R)-2-hydroxy-2-(8-hydroxy-2-oxo-1,2-dihydroquinolin-5-yl)ethyl]amino}piperidin-1-yl)propanamide]	3.98	–	–	0.8
O=c1ccc2c([C@@H](O)CNCC3(O)CCN(CCOCCc4cccc5c4CCCC5)CC3)ccc(O)c2[nH]1 [Example 74, 8-Hydroxy-5-{(2R)-1-hydroxy-2-[(4-hydroxy-1-{2-[2-(5,6,7,8-tetrahydronaphthalen-1-yl)ethoxy]ethyl}piperidin-4-ylmethyl)amino]ethyl}-1H-quinolin-2-one]	0.794	–	–	0.9
O=c1[nH]c2c(O)ccc([C@@H](O)CNCC3CN(CCCOCCc4ccccc4)C3)c2s1 [Example 20, 4-Hydroxy-7-{(1R)-1-hydroxy-2-[({1-[3-(2-phenylethoxy)propyl]azetidin-3-yl}methyl)amino]ethyl}-1,3-benzothiazol-2(3H)-one hydrochloride]	0.316	–	–	1
Cc1cccc(Cl)c1CNC(=O)CCN1CCC(NC[C@H](O)c2ccc(O)c3[nH]c(=O)ccc23)CC1 [Example 31, N-(2-Chloro-6-methylbenzyl)-3-(4-{[(2R)-2-hydroxy-2-(8-hydroxy-2-oxo-1,2-dihydroquinolin-5-yl)ethyl]amino}piperidin-1-yl)propanamide]	5.01	–	–	0.8

Next, values leading:

EC50 (Adrenergic β2 [1]) [nM]	Intrinsic Activity (Adrenergic β2 [2])	EC50 (Adrenergic β2 [2]) [nM]	Intrinsic Activity (Adrenergic β2 [1])	Structure (SMILES)
–	1.0	5.01	–	O=c1ccc2c([C@@H](O)CNC[C@H]3CCCN(CCOCCc4ccccc4)C3)ccc(O)c2[nH]1 [Example 14, 8-Hydroxy-5-{(1R)-1-hydroxy-2-[({(3R)-1-[2-(2-phenylethoxy)ethyl]piperidin-3-yl}methyl)amino]ethyl}quinolin-2(1H)-one]
–	0.8	31.6	–	O=c1ccc2c([C@@H](O)CNC3CCN(CCCOCCc4ccccc4)CC3)ccc(O)c2[nH]1 [Example 3, 8-Hydroxy-5-[(1R)-1-hydroxy-2-({1-[3-(2-phenylethoxy)propyl]piperidin-4-yl}amino)ethyl]quinolin-2(1H)-one]
–	0.9	20	–	O=c1ccc2c([C@@H](O)CN[C@H]3CC[C@H](NCCOCCc4ccccc4)CC3)ccc(O)c2[nH]1 [Example 2, 8-Hydroxy-5-{(1R)-1-hydroxy-2-[(trans-4-{[2-(2-phenylethoxy)ethyl]amino}cyclohexyl)amino]ethyl}quinolin-2(1H)-one]
–	0.8	7.94	–	O=C(CCN1CCC(NC[C@H](O)c2ccc(O)c3[nH]c(=O)ccc23)CC1)NCc1ccccc1 [Example 6, N-Benzyl-3-(4-{[(2R)-2-hydroxy-2-(8-hydroxy-2-oxo-1,2-dihydroquinolin-5-yl)ethyl]amino}piperidin-1-yl)propanamide]
